This note sets out measurements from PMC5890335 (Journal of immunology (Baltimore, Md. : 1950), 2018).

In one experiment the target is H2-D^d MHC-I molecule (Mus musculus, UniProt P01900). As to the kind of experiment: Peptide induction of surface H2-D^d expression on RMAS-D^d cells. Type of experiment: cell-based. The note with it: fluorescence index, ANOVA, compared with s.p.VV10, Fig 4c.
Experiment [1] deals with H2-D^d MHC-I molecule on RMAS-D^d cells (mouse). As to the kind of experiment: flow cytometry on cells. (In general: In flow cytometry, cells or beads pass a laser one at a time.)
H2-D^d MHC-I molecule on RMAS-D^d cells (mouse), sequence (P01900 25-365): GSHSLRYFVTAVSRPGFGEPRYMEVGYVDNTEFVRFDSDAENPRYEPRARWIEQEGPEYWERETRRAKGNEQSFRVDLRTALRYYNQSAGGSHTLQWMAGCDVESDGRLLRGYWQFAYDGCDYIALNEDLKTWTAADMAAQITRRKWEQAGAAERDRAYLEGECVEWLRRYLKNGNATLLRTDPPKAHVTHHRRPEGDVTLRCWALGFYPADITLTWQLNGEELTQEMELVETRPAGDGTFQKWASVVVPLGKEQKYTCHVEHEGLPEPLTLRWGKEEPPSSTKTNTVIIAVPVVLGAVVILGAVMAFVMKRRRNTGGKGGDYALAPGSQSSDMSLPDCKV

H2-D^d MHC-I molecule, sequence (P01900 whole entry, looked up): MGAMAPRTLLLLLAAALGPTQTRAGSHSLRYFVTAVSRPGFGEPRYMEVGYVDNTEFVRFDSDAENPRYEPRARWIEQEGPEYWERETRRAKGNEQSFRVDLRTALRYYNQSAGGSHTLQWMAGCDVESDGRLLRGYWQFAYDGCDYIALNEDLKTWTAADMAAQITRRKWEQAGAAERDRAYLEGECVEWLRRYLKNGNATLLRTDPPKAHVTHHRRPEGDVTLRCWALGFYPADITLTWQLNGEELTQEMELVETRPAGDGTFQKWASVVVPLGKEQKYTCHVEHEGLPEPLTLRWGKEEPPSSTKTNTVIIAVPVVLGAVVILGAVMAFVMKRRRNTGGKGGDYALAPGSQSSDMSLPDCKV

IGPGRAFYT [s.p.T9]: on H2-D^d MHC-I molecule, the “comparison of H2-D^d binding titration curves of the 9-mer peptides” value is on record as “do not differ from each other”.
Same read-out and setting: under IGPGRAFYV [s.p.V9] stands “do not differ from each other”.
The molecule “s.p.TT10 (…), minimal V3 epitope of HIV-1MN gp120, gp120 314-323 (peptide)” yielded an FI0.5 (peptide concentration giving a 50% increase in H2-D^d surface expression) in experiment [1] of 1 µg/mL.
In turn, IGPGRAFYVV [s.p.VV10 (…)] displayed an FI0.5 (peptide concentration giving a 50% increase in H2-D^d surface expression) in experiment [1] of 1 µg/mL.
